Laboratory results from US12624018B1, “Inhibitors of RIPK2 and medical uses thereof” (Odyssey Therapeutics, Inc., priority 2022, dated 2026).

Target: T1, RIPK2 enzyme (Homo sapiens, UniProt O43353)
T1 construct: purchased Carna 09-128
Assay: RIPK2 inhibition (ADP-Glo Kinase Assay)
Format: biochemical
Settings: RIPK2 5 nM, ATP 150 μM, MBP substrate, read-out: RIPK2 IC50
How it was run: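 Swine MBP substrate; compound and 5 nM RIPK2 first mixed for 30 min at room temperature; buffer pH 7.5 HEPES 50 mM with 10 mM MgCl2, 2 mM DTT, 1 mM EGTA, Brij-35, BSA.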

T1 sequence (O43353 1-299 limits assumed): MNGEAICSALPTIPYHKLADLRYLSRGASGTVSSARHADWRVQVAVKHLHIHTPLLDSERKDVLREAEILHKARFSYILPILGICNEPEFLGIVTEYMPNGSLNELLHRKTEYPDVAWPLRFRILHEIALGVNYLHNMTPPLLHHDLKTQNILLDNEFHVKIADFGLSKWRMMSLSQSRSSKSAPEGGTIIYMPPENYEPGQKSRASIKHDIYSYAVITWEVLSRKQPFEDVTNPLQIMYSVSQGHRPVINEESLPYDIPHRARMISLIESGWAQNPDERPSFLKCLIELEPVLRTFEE

IC50	Structure (SMILES)
< 2.5 nM	CC(C)(C)n1cc(NC(=O)Cc2ccc(Oc3ccnc4ccc(OC5CCNCC5)cc34)c(F)c2F)cn1 [Compound 165, N-(1-(tert-butyl)-1H-pyrazol-4-yl)-2-(2,3-difluoro-4-((6-(piperidin-4-yloxy)quinolin-4-yl)oxy)phenyl) acetamide]
< 2.5 nM	Cc1cc(CC(=O)Nc2cnn(C(C)(C)C)c2)c(F)cc1Oc1ccnc2ccc(S(=O)(=O)C3CC3)cc12 [Compound 416, N-(1-(tert-butyl)-1H-pyrazol-4-yl)-2-(4-((6-(cyclopropylsulfonyl)quinolin-4-yl)oxy)-2-fluoro-5-methylphenyl)acetamide]
< 2.5 nM	CN1CCC(Oc2ccc3nccc(Oc4ccc(CC(=O)Nc5cnn(C(C)(C)C)c5)cc4F)c3c2)CC1 [Compound 162, N-(1-(tert-butyl)-1H-pyrazol-4-yl)-2-(3-fluoro-4-((6-((1-methyl-piperidin-4-yl)oxy)quinolin-4-yl)oxy)phenyl) acetamide]
< 2.5 nM	Cc1cc(CC(=O)Nc2cnn(C(C)(C)C)c2)ccc1Oc1ccnc2ccc(OC3CC4(CNC4)C3)cc12 [Compound 211, 2-(4-((6-((2-azaspiro[3.3]heptan-6-yl)oxy)quinolin-4-yl)oxy)-3-methyl-phenyl)-N-(1-(tert-butyl)-1H-pyrazol-4-yl)acetamide]
< 2.5 nM	Cc1c(Oc2ccnc3ccc(C(=O)N(CCO)CCO)cc23)ccc(CC(=O)Nc2cnn(C(C)(C)C)c2)c1F [Compound 341, 4-(4-(2-((1-(tert-butyl)-1H-pyrazol-4-yl)amino)-2-oxoethyl)-3-fluoro-2-methyl-phenoxy)-N,N-bis(2-hydroxyethyl) quinoline-6-carboxamide]
< 2.5 nM	Cc1cc(CC(=O)Nc2cnn(C(C)(C)C)c2)ccc1Oc1ccnc2ccc(S(=O)(=O)C3CC(N)C3)cc12 (single isomer, unassigned) [Compound 282, 2-(4-((6-((-3-aminocyclobutyl)sulfonyl)quinolin-4-yl)oxy)-3-methylphenyl)-N-(1-(tert-butyl)-1H-pyrazol-4-yl)acetamide]
< 2.5 nM	CC(C)(C)n1cc(NC(=O)Cc2ccc(Oc3ccnc4ccc(N5CCOCC5=O)cc34)cc2F)cn1 [Compound 154, N-(1-(tert-butyl)-1H-pyrazol-4-yl)-2-(2-fluoro-4-((6-(3-oxomorpholino)quinolin-4-yl)oxy)phenyl) acetamide]
< 2.5 nM	Cc1c(Oc2ccnc3ccc(C(=O)N4CCCC4)cc23)ccc(CC(=O)Nc2cnn(C(C)(C)C)c2)c1F [Compound 350, N-(1-(tert-butyl)-1H-pyrazol-4-yl)-2-(2-fluoro-3-methyl-4-((6-(pyrrolidine-1-carbonyl)quinolin-4-yl)oxy)phenyl) acetamide]
3.5 nM	CC(C)(C)n1cc(NC(=O)Cc2ncc(Oc3ccnc4ccc(OC5CCNCC5)cc34)cc2F)cn1 [Compound 80, N-(1-(tert-butyl)-1H-pyrazol-4-yl)-2-(3-fluoro-5-((6-(piperidin-4-yloxy)quinolin-4-yl)oxy)pyridin-2-yl)acetamide]
< 2.5 nM	Cc1cc(CC(=O)Nc2cnn(C(C)C)c2)ccc1Oc1ccnc2ccc(S(C)(=O)=O)cc12 [Compound 212, N-(1-isopropyl-1H-pyrazol-4-yl)-2-(3-methyl-4-((6-(methylsulfonyl)quinolin-4-yl)oxy)phenyl)acetamide]
< 2.5 nM	COCCN1CCC(Oc2ccc3ncnc(Oc4ccc(CC(=O)Nc5cnn(C(C)(C)C)c5)cc4C)c3c2)CC1 [Compound 177, N-(1-(tert-butyl)-1H-pyrazol-4-yl)-2-(4-((6-((1-(2-methoxyethyl)piperidin-4-yl)oxy)quinazolin-4-yl)oxy)-3-methylphenyl) acetamide]
< 2.5 nM	Cc1cc(CC(=O)Nc2cnn(C(C)(C)C)c2)ccc1Oc1ccnc2ccc(S(=O)(=O)CC3COC3)cc12 [Compound 240, N-(1-(tert-butyl)-1H-pyrazol-4-yl)-2-(3-methyl-4-((6-((oxetan-3-ylmethyl)sulfonyl)quinolin-4-yl)oxy)phenyl)acetamide]
4 nM	Cc1cc(CC(=O)Nc2cnn(C(C)(C)C)c2)ccc1Oc1ncnc2ccc(OC3CCN(CCO)CC3)cc12 [Compound 176]
